Measured values: the supplement of paper PMC10307832

Tests used:
Experiment in all cases: relative viability (nuclei count vs DMSO), 5 days (fraction); higher = more cells survive
[1] = compound: CCn1c(-c2nonc2N)nc2cnc(Oc3cccc(NC(=O)c4ccc(OCCN5CCOCC5)cc4)c3)cc21 + COc1cccc2cc(-c3nc([C@H]4CC[C@H](C(=O)O)CC4)n4ncnc(N)c34)[nH]c12 [OSI-027] (partner 0.5 µM)
Procedure, shortened: (§1)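 One day after seeding in 1536-well plates, lung cancer cell lines were dosed by pin tool. Dosing was either single-drug or a fixed anchor-drug dose plus five library-drug doses (not always all listed) in √10 steps. After 5 days, nuclei were stained in one fix-and-stain step and counted on 4× images, and relative viability is the nuclei count of treated wells over that of vehicle wells, given as the median of duplicate plates.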

[2] = compound: CCn1c(-c2nonc2N)nc2cnc(Oc3cccc(NC(=O)c4ccc(OCCN5CCOCC5)cc4)c3)cc21 + O=C(c1cc(Cc2n[nH]c(=O)c3ccccc23)ccc1F)N1CCN(C(=O)C2CC2)CC1 [Olaparib] (partner 8 µM)
Procedure, shortened: as §1

Mirin + Pictilisib = compound: N=C1NC(=O)/C(=C/c2ccc(O)cc2)S1 [Mirin] + CS(=O)(=O)N1CCN(Cc2cc3nc(-c4cccc5[nH]ncc45)nc(N4CCOCC4)c3s2)CC1 [Pictilisib] (partner 1 µM)
Procedure, shortened: as §1

Mirin + Olaparib = compound: N=C1NC(=O)/C(=C/c2ccc(O)cc2)S1 [Mirin] + O=C(c1cc(Cc2n[nH]c(=O)c3ccccc23)ccc1F)N1CCN(C(=O)C2CC2)CC1 [Olaparib] (partner 8 µM)
Procedure, shortened: as §1

**Q.** HARA was tested. Which relative viability ([1]; first compound 0.04 µM) did it give?
**A.** Its relative viability is 0.533.

**Q.** And the relative viability ([1]; first compound 0.1265 µM)?
**A.** Its relative viability is 0.38.

**Q.** And the relative viability ([1]; first compound 0.4 µM)?
**A.** Its relative viability is 0.141.

**Q.** What about the relative viability ([1]; first compound 1.265 µM) of the same cell line?
**A.** Its relative viability is 0.148.

**Q.** What about the relative viability ([1]; first compound 4 µM) of the same cell line?
**A.** Its relative viability is 0.102.

**Q.** What about the relative viability ([2]; first compound 0.04 µM) of the same cell line?
**A.** The relative viability was 0.607.

**Q.** What about the relative viability ([2]; first compound 0.1265 µM) of the same cell line?
**A.** The relative viability was 0.965.

**Q.** What about the relative viability ([2]; first compound 0.4 µM) of the same cell line?
**A.** The relative viability was 0.654.

**Q.** And the relative viability ([2]; first compound 1.265 µM)?
**A.** The relative viability was 0.294.

**Q.** And the relative viability ([2]; first compound 4 µM)?
**A.** Its relative viability is 0.139.

**Q.** And the relative viability (Mirin + Pictilisib; first compound 0.25 µM)?
**A.** The relative viability was 0.367.

**Q.** What about the relative viability (Mirin + Pictilisib; first compound 0.7906 µM) of the same cell line?
**A.** Its relative viability is 0.353.

**Q.** What about the relative viability (Mirin + Pictilisib; first compound 2.5 µM) of the same cell line?
**A.** The relative viability was 0.437.

**Q.** What about the relative viability (Mirin + Pictilisib; first compound 7.906 µM) of the same cell line?
**A.** Its relative viability is 0.335.

**Q.** What about the relative viability (Mirin + Pictilisib; first compound 25 µM) of the same cell line?
**A.** The relative viability was 0.169.

**Q.** And the relative viability (Mirin + Olaparib; first compound 0.25 µM)?
**A.** The relative viability was 1.08.

**Q.** And the relative viability (Mirin + Olaparib; first compound 2.5 µM)?
**A.** Its relative viability is 0.735.

**Q.** What about the relative viability (Mirin + Olaparib; first compound 7.906 µM) of the same cell line?
**A.** The relative viability was 0.874.

**Q.** What about the relative viability (Mirin + Olaparib; first compound 25 µM) of the same cell line?
**A.** The relative viability was 0.495.

**Q.** With NCI-H1944 as the cell line, how does the relative viability ([1]; first compound 0.04 µM) read?
**A.** Its relative viability is 0.413.

**Q.** What about the relative viability ([1]; first compound 0.1265 µM) of the same cell line?
**A.** Its relative viability is 0.397.

**Q.** And the relative viability ([1]; first compound 0.4 µM)?
**A.** Its relative viability is 0.236.

**Q.** What about the relative viability ([1]; first compound 1.265 µM) of the same cell line?
**A.** Its relative viability is 0.214.

**Q.** And the relative viability ([1]; first compound 4 µM)?
**A.** The relative viability was 0.236.

**Q.** And the relative viability ([2]; first compound 0.04 µM)?
**A.** Its relative viability is 0.42.

**Q.** What about the relative viability ([2]; first compound 0.1265 µM) of the same cell line?
**A.** The relative viability was 0.419.

**Q.** And the relative viability ([2]; first compound 0.4 µM)?
**A.** Its relative viability is 0.358.

**Q.** What about the relative viability ([2]; first compound 1.265 µM) of the same cell line?
**A.** Its relative viability is 0.386.

**Q.** What about the relative viability ([2]; first compound 4 µM) of the same cell line?
**A.** Its relative viability is 0.327.

**Q.** What about the relative viability (Mirin + Pictilisib; first compound 0.25 µM) of the same cell line?
**A.** Its relative viability is 0.346.

**Q.** What about the relative viability (Mirin + Pictilisib; first compound 2.5 µM) of the same cell line?
**A.** Its relative viability is 0.328.

**Q.** And the relative viability (Mirin + Pictilisib; first compound 7.906 µM)?
**A.** Its relative viability is 0.335.

**Q.** What about the relative viability (Mirin + Pictilisib; first compound 25 µM) of the same cell line?
**A.** Its relative viability is 0.359.

**Q.** What about the relative viability (Mirin + Olaparib; first compound 0.25 µM) of the same cell line?
**A.** Its relative viability is 0.377.

**Q.** And the relative viability (Mirin + Olaparib; first compound 0.7906 µM)?
**A.** The relative viability was 0.421.

**Q.** And the relative viability (Mirin + Olaparib; first compound 2.5 µM)?
**A.** Its relative viability is 0.391.

**Q.** What about the relative viability (Mirin + Olaparib; first compound 7.906 µM) of the same cell line?
**A.** The relative viability was 0.328.

**Q.** And the relative viability (Mirin + Olaparib; first compound 25 µM)?
**A.** Its relative viability is 0.296.

**Q.** For NCI-H2405, which relative viability ([1]; first compound 0.04 µM) is on record?
**A.** The relative viability was 0.763.

**Q.** And the relative viability ([1]; first compound 0.1265 µM)?
**A.** Its relative viability is 0.582.

**Q.** What about the relative viability ([1]; first compound 0.4 µM) of the same cell line?
**A.** Its relative viability is 0.185.

**Q.** What about the relative viability ([1]; first compound 1.265 µM) of the same cell line?
**A.** Its relative viability is 0.326.

**Q.** What about the relative viability ([1]; first compound 4 µM) of the same cell line?
**A.** Its relative viability is 0.354.

**Q.** What about the relative viability ([2]; first compound 0.04 µM) of the same cell line?
**A.** The relative viability was 0.883.

**Q.** And the relative viability ([2]; first compound 0.1265 µM)?
**A.** The relative viability was 0.57.

**Q.** And the relative viability ([2]; first compound 0.4 µM)?
**A.** Its relative viability is 0.341.

**Q.** What about the relative viability ([2]; first compound 1.265 µM) of the same cell line?
**A.** Its relative viability is 0.258.

**Q.** And the relative viability ([2]; first compound 4 µM)?
**A.** The relative viability was 0.287.

**Q.** And the relative viability (Mirin + Pictilisib; first compound 0.25 µM)?
**A.** Its relative viability is 0.465.

**Q.** What about the relative viability (Mirin + Pictilisib; first compound 0.7906 µM) of the same cell line?
**A.** Its relative viability is 0.51.

**Q.** What about the relative viability (Mirin + Pictilisib; first compound 2.5 µM) of the same cell line?
**A.** The relative viability was 0.401.

**Q.** What about the relative viability (Mirin + Pictilisib; first compound 7.906 µM) of the same cell line?
**A.** The relative viability was 0.307.

**Q.** And the relative viability (Mirin + Pictilisib; first compound 25 µM)?
**A.** The relative viability was 0.317.

**Q.** And the relative viability (Mirin + Olaparib; first compound 0.25 µM)?
**A.** Its relative viability is 0.916.

**Q.** What about the relative viability (Mirin + Olaparib; first compound 2.5 µM) of the same cell line?
**A.** Its relative viability is 0.898.

**Q.** And the relative viability (Mirin + Olaparib; first compound 7.906 µM)?
**A.** Its relative viability is 0.97.

**Q.** And the relative viability (Mirin + Olaparib; first compound 25 µM)?
**A.** The relative viability was 0.838.

**Q.** Which results are given for Calu-6?
**A.** relative viability ([2]; first compound 0.04 µM): 0.569; relative viability ([2]; first compound 0.1265 µM): 0.528; relative viability ([2]; first compound 0.4 µM): 0.541; relative viability ([2]; first compound 1.265 µM): 0.381; relative viability ([2]; first compound 4 µM): 0.328; relative viability (Mirin + Pictilisib; first compound 0.25 µM): 0.997; relative viability (Mirin + Pictilisib; first compound 0.7906 µM): 0.934; relative viability (Mirin + Pictilisib; first compound 2.5 µM): 0.862; relative viability (Mirin + Pictilisib; first compound 7.906 µM): 0.761; relative viability (Mirin + Pictilisib; first compound 25 µM): 0.597; relative viability (Mirin + Olaparib; first compound 0.25 µM): 0.554; relative viability (Mirin + Olaparib; first compound 0.7906 µM): 0.673; relative viability (Mirin + Olaparib; first compound 2.5 µM): 0.618; relative viability (Mirin + Olaparib; first compound 7.906 µM): 0.397; relative viability (Mirin + Olaparib; first compound 25 µM): 0.482

**Q.** For NCI-H1703, which relative viability ([2]; first compound 0.04 µM) is on record?
**A.** The relative viability was 0.469.

**Q.** And the relative viability ([2]; first compound 0.1265 µM)?
**A.** Its relative viability is 0.452.

**Q.** And the relative viability ([2]; first compound 0.4 µM)?
**A.** The relative viability was 0.675.

**Q.** What about the relative viability ([2]; first compound 1.265 µM) of the same cell line?
**A.** The relative viability was 0.333.

**Q.** What about the relative viability ([2]; first compound 4 µM) of the same cell line?
**A.** Its relative viability is 0.303.

**Q.** What about the relative viability (Mirin + Pictilisib; first compound 0.25 µM) of the same cell line?
**A.** Its relative viability is 0.25.

**Q.** What about the relative viability (Mirin + Pictilisib; first compound 0.7906 µM) of the same cell line?
**A.** The relative viability was 0.252.

**Q.** And the relative viability (Mirin + Pictilisib; first compound 2.5 µM)?
**A.** The relative viability was 0.27.

**Q.** What about the relative viability (Mirin + Pictilisib; first compound 25 µM) of the same cell line?
**A.** The relative viability was 0.226.

**Q.** And the relative viability (Mirin + Olaparib; first compound 0.25 µM)?
**A.** Its relative viability is 0.414.

**Q.** And the relative viability (Mirin + Olaparib; first compound 0.7906 µM)?
**A.** Its relative viability is 0.384.

**Q.** And the relative viability (Mirin + Olaparib; first compound 2.5 µM)?
**A.** The relative viability was 0.412.

**Q.** What about the relative viability (Mirin + Olaparib; first compound 25 µM) of the same cell line?
**A.** Its relative viability is 0.635.
